Where two headings read alike, the source gives them in different places.
Columns and labels:
human GLUT1^V69M = target: T1, human GLUT1^V69M (Homo sapiens, UniProt P11166, V69M); test: Glucose uptake by GLUT1^V69M expressed in hxt^0 gal2Δ (RE700A) yeast; format: cell-based; conditions: 2.5 mM glucose
T1 construct: HA (C); expressed in transfected cells; host or cells: S. cerevisiae RE700A (hxt0 gal2Δ), plasmid pFL38Kan-GLUT1^V69M (TEF1 promoter, low-copy)
T1 sequence (P11166 1-492 V69M): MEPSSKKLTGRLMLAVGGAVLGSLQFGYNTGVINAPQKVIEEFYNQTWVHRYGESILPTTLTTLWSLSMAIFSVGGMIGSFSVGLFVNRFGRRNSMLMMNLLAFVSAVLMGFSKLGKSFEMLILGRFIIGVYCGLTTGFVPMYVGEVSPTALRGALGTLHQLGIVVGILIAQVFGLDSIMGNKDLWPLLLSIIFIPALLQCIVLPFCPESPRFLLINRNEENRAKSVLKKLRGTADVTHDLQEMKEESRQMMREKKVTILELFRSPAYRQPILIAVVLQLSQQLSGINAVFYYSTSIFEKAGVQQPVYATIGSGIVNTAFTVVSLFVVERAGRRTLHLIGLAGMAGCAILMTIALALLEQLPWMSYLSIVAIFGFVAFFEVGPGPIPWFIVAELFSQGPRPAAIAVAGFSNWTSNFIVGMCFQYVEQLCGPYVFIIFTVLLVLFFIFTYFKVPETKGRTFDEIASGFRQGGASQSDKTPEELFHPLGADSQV
Description: To assess whether WBC-A could inhibit glucose transport activity of the GLUT carriers, we expressed human GLUT1^V69M and GLUT4^V85M in a hxt^0 gal2Δ (RE700A) and hxt^0 erg4Δ (EBY.VW4000) strain, respectively. These strains are both deficient in glucose uptake due to absence of all active glucose transporters. For functional GLUT expression in yeast, specific mutations had to be introduced in both sequences, whereas for GLUT4, an additional ERG4 gene deletion was required^64,65,66.
Zero-trans uptake of radioactively labeled [U-^14C]glucose, [U-^14C]fructose or [U-^14C]galactose by S. cerevisiae cells was determined in accordance with previous studies^44,66. Cells were grown on different carbon sources depending on the experiment. For measuring glucose uptake activity in the tps1Δ and tps1Δ hxtA strains (FIG. 1b,c), cells were grown on YP medium containing 3% glycerol (measurement of 10s). Typically, for compound characterization and kinetic studies in wild type and tps1Δ strains, cells were (pre)grown on Complete Synthetic medium supplemented with 2% galactose (measurement of 10s). […] The loaded filter was transferred to a scintillation vial containing 3 mL liquid scintillation cocktail (Ultima-Flo M, Perkin Elmer) and counted using the Hidex 300 SL. […]

tps1Δ cells = test: Glu6P and Fru1,6bisP levels after glucose addition to tps1Δ cells; format: cell-based, S. cerevisiae
Procedure: For measuring metabolite levels, cells were typically grown in Complete Synthetic medium. […] However, when comparing the effect of Warbicins on metabolite profiles of wild type and tps1Δ strains (FIG. 2f-k), cells were grown on 2% galactose. When grown to exponential phase, cells were harvested by centrifugation and washed twice with ice-cold 25 mM 2-(N-Morpholino)ethanesulfonic acid (MES) buffer, pH 6. Cells were suspended in Complete Synthetic medium without sugar at a concentration of 75 mg (wet weight)/mL followed by a temperature equilibration at 30° C. in a shaking water bath for 30 min. Depending on the experiment, a final concentration of 2.5 mM, 7.5 mM or 10 mM glucose was added to the cell suspension. Compounds were added 10 min prior to glucose addition. […]
Through endpoint measurement of the absorbance of NADH or NADPH at 340 nm, metabolite concentrations were calculated by applying Lambert's Law. Different metabolites were measured through the use of coupled enzymatic reactions. […] Depending on the measured metabolite, different co-factors and auxiliary enzymes were added. For measuring glucose-6-phosphate, 0.8 mg/ml NADP^+ was added to the assay buffer after which the baseline absorbance was measured. […] After stabilization of the OD340 spectra, ATP concentrations were measured by additionally adding 10 mM MgCl2 and 0.5 mM glucose to the assay buffer. […]

[1] = test system: HXK2 hxk1Δ glk1Δ, hxk2Δ hxk1Δ glk1Δ and hxk2Δ hxk1Δ GLK1 cells; test: Sugar uptake in yeast strains with and without hexokinase activity; format: cell-based, S. cerevisiae; conditions: for inhibition at 50 µM: Saccharomyces cerevisiae
Procedure: Zero-trans uptake of radioactively labeled [U-^14C]glucose, [U-^14C]fructose or [U-^14C]galactose by S. cerevisiae cells was determined in accordance with previous studies^44,66. Cells were grown on different carbon sources depending on the experiment. For measuring glucose uptake activity in the tps1Δ and tps1Δ hxtA strains (FIG. 1b,c), cells were grown on YP medium containing 3% glycerol (measurement of 10s). Typically, for compound characterization and kinetic studies in wild type and tps1Δ strains, cells were (pre)grown on Complete Synthetic medium supplemented with 2% galactose (measurement of 10s). In the experiments on the influence of hexokinase activity on the sugar uptake rate, the measurement duration was shortened to 5s and cells were always grown on YP medium containing 3% glycerol and 2% ethanol. After harvesting, cells were washed twice with ice-cold 25 mM MES-buffer pH 6, and resuspended in their respective medium without sugar to a final concentration of 45 mg (wet weight)/mL. The amount of added tracer was estimated to give a response close to at least 1000 counts per min in order to adequately counter background noise. Cells were first preincubated for 10 min at 30° C. with the compound to acclimate the cells to the temperature and to allow adequate interaction with the compound prior to uptake. Next, hexose sugar was mixed with the cell suspension, which was then incubated for 5 or 10 s, depending on the experiment, after which the cells were rapidly filtered over a glass microfiber filter (Whatman GF/C) and washed three times with ice-cold dH2O. The loaded filter was transferred to a scintillation vial containing 3 mL liquid scintillation cocktail (Ultima-Flo M, Perkin Elmer) and counted using the Hidex 300 SL. Three blank measurements per strain were typically included to account for background signal, for which the cells were first quenched before adding the radioactive label.

## Cc1nc(Sc2nnc3n2CCCCC3)c2c(-c3cccs3)csc2n1 [WBC-A]
Human GLUT1^V69M; 25 μM, hxt^0 gal2Δ strain
  Inhibition of glucose uptake by GLUT1^V69M at 25 μM: inhibited
Human GLUT1^V69M; hxt^0 gal2Δ (RE700A)
  IC50: 24 µM
tps1Δ cells
  Glu6P and Fru1,6bisP hyperaccumulation after addition of 2.5 mM glucose: concentration-dependent gradual drop in Glu6P and a more precipitous drop in Fru1,6bisP
[1]; 50 μM WBC-A
  Fructose uptake at tracer concentration, hxk2Δ hxk1Δ GLK1 cells: little inhibition of fructose uptake
  Glucose uptake at tracer concentration, hxk2Δ hxk1Δ GLK1 cells: strong inhibition of glucose uptake
[1]; 1 mM glucose
  Inhibition of glucose uptake rate, hxk1Δ hxk2Δ glk1Δ strain: little further inhibition
[1]; 1 mM glucose, HXK2 hxk1Δ glk1Δ
  Inhibition of glucose uptake rate, strain expressing active Hxk2: strong reduction in glucose uptake rate
[1]; read-out: Inhibition of fructose transport, strain expressing only GLK1
  inhibition at 50 µM: ~30%
[1]; read-out: Inhibition of fructose transport, strain only expressing HXK2
  inhibition at 50 µM: > 75%
